How the values were obtained:
Assay in all cases: Kinase profiling
Type in all cases: biochemical
IRAK4 = target: T1, IRAK4 (Homo sapiens, UniProt Q9NWZ3)
T1 sequence (Q9NWZ3 1-460): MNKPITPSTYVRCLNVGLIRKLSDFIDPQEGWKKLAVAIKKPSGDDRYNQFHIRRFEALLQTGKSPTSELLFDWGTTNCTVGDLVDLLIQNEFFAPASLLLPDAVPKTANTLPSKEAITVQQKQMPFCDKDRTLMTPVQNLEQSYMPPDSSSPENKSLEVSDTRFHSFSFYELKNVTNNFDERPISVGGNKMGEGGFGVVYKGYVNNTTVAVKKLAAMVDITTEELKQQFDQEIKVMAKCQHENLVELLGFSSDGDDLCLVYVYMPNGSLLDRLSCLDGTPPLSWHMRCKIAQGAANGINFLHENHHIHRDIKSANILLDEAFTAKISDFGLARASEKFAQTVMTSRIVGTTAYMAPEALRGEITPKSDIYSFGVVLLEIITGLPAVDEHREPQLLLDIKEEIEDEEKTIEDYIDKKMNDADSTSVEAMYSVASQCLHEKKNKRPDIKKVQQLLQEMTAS

LKB1 = target: T2, LKB1 (Homo sapiens, UniProt Q15831)
T2 sequence (Q15831 1-433): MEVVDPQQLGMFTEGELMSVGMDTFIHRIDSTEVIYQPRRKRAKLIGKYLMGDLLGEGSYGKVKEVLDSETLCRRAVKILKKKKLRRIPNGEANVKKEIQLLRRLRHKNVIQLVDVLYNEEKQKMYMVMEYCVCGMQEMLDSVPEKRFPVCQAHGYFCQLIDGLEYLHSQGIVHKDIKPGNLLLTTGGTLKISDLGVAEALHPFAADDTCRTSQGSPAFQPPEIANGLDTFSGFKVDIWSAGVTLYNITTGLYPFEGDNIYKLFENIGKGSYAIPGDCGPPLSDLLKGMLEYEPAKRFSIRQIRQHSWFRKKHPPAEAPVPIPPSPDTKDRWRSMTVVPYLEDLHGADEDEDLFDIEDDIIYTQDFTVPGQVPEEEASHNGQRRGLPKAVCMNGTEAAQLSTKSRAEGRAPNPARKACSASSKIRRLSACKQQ
T2 sequence (Q7RTN6 1-431 partner): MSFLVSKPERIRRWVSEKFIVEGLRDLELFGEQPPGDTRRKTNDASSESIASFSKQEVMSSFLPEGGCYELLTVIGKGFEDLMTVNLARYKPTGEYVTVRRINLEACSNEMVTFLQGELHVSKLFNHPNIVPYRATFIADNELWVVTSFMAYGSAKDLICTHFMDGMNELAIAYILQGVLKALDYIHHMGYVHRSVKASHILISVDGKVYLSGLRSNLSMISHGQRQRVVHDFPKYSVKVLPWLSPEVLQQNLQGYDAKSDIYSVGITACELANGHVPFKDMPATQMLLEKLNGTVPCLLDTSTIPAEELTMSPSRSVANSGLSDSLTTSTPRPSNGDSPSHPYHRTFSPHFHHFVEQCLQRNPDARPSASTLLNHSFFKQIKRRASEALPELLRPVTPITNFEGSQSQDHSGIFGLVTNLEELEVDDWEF
T2 sequence (Q9Y376 1-341 partner): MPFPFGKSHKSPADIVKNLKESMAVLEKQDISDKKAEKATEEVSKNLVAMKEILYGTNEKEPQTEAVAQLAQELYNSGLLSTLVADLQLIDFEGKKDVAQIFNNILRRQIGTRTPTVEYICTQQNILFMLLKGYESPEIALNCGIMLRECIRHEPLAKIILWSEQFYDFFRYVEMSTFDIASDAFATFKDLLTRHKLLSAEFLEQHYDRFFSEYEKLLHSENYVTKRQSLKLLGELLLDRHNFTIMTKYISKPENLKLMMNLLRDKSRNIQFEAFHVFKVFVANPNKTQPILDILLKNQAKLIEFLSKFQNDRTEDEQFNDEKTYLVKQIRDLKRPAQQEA

MARK2 = MARK2 (Homo sapiens, UniProt Q7KZI7)
MARK2, sequence (Q7KZI7 whole entry): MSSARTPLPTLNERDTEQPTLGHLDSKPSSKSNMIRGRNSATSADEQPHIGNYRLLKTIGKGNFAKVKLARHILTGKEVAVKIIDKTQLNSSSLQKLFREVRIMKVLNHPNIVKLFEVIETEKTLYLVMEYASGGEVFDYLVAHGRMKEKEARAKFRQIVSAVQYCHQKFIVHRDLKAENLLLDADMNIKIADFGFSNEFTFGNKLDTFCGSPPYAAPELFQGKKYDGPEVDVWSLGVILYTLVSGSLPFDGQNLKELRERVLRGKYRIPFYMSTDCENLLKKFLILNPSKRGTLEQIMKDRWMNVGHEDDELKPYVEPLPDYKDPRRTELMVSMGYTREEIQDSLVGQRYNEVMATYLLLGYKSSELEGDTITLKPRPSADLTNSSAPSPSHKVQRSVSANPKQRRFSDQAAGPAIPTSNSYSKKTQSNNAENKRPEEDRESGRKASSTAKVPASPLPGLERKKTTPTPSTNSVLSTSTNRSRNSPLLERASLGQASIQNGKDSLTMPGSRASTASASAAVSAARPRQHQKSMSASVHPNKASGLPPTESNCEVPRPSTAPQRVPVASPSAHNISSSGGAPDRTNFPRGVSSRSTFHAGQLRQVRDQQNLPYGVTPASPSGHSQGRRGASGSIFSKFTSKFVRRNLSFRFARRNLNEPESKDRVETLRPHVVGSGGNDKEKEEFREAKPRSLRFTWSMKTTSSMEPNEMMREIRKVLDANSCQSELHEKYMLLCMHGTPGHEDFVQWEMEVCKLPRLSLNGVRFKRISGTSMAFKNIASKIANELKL

EF2K = EF2K (Homo sapiens, UniProt O00418)
MEKK1 = MEKK1 (Homo sapiens, UniProt Q13233)
MEKK1, sequence (Q13233 whole entry): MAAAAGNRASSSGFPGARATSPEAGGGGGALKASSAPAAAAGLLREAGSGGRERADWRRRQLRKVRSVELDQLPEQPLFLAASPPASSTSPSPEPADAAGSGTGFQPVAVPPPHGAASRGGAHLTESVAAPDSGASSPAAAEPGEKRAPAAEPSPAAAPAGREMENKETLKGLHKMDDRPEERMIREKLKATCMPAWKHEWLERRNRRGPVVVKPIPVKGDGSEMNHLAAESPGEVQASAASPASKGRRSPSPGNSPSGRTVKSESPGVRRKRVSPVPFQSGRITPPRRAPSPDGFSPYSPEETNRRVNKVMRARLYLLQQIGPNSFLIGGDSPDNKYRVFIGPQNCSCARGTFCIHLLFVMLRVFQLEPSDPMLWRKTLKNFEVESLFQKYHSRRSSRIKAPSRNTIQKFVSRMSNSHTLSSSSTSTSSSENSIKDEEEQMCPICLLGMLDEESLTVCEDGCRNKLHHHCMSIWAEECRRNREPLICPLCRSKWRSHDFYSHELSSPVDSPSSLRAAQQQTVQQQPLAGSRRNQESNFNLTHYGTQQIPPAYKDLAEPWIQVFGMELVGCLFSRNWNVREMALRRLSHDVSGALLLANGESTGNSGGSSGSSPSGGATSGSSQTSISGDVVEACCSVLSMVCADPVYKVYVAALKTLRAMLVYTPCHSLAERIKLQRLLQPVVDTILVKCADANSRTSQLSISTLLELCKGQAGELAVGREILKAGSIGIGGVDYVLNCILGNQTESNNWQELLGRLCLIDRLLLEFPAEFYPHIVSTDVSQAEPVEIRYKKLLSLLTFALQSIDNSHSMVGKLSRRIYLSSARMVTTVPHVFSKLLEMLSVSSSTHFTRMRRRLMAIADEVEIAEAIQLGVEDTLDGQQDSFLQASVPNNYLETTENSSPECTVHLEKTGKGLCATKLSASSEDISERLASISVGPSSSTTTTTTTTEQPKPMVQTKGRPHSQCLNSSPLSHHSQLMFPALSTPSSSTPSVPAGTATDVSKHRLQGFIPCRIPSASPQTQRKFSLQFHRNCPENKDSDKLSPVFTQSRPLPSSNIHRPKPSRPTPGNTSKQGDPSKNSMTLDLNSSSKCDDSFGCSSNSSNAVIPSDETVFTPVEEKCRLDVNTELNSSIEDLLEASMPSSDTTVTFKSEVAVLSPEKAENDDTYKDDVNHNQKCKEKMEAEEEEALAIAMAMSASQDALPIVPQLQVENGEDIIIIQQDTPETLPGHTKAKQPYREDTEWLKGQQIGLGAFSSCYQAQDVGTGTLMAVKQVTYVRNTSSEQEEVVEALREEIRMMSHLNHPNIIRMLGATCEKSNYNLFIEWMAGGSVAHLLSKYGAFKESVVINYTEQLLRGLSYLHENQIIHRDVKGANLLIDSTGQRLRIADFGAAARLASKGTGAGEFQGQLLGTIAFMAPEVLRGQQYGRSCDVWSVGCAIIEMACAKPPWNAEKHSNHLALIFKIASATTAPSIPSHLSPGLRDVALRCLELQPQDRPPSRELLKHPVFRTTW

CDK9-Cyclin T1 = CDK9-Cyclin T1 (Homo sapiens, UniProt P50750)
CDK9-Cyclin T1, sequence (P50750 whole entry): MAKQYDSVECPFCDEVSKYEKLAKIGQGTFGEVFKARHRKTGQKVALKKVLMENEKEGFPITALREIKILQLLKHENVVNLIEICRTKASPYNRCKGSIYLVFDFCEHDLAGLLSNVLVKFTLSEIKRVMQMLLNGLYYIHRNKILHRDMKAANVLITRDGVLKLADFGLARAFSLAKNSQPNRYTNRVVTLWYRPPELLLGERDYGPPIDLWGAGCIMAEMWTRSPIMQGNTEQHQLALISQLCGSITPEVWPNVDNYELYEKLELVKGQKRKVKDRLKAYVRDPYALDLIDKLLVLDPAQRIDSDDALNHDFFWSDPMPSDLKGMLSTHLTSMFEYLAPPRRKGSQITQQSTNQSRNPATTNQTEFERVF
CDK9-Cyclin T1, sequence (O60563 whole entry partner): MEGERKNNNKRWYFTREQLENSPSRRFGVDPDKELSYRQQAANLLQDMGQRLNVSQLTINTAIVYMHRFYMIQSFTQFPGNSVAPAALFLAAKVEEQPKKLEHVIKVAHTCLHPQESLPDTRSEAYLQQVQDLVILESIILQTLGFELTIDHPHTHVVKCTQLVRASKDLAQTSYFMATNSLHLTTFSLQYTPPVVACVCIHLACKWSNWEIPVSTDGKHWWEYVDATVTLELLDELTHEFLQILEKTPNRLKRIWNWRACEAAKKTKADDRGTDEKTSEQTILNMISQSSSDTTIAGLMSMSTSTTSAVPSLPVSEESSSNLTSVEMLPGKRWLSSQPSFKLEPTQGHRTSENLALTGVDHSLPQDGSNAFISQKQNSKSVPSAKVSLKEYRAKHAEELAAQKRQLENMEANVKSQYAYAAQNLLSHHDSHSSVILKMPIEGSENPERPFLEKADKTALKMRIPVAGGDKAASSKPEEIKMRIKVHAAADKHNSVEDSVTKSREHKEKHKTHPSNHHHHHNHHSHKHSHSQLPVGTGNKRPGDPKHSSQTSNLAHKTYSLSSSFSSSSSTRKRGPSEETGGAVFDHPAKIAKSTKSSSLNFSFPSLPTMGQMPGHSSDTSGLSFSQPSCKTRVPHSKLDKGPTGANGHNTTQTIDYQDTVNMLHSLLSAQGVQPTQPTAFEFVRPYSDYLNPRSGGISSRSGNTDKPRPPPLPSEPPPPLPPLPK

PKB alpha = PKB alpha (Homo sapiens, UniProt P31749)
PKB alpha, sequence (P31749 whole entry): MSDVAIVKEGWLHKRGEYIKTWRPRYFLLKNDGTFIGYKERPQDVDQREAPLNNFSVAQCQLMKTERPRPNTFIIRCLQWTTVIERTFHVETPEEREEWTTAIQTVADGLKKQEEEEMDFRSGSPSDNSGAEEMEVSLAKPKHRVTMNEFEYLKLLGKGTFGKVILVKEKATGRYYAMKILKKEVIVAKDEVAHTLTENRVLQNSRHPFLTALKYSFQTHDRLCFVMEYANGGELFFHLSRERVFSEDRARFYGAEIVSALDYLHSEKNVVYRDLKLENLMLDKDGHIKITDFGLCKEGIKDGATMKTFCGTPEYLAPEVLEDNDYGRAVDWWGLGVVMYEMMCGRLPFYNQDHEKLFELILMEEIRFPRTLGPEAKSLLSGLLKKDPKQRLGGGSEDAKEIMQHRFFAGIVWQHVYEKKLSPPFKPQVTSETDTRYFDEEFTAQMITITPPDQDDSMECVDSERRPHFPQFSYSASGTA

HER4 = HER4 (Homo sapiens, UniProt Q15303)
CSK = CSK (Homo sapiens, UniProt P41240)
CSK, sequence (P41240 whole entry): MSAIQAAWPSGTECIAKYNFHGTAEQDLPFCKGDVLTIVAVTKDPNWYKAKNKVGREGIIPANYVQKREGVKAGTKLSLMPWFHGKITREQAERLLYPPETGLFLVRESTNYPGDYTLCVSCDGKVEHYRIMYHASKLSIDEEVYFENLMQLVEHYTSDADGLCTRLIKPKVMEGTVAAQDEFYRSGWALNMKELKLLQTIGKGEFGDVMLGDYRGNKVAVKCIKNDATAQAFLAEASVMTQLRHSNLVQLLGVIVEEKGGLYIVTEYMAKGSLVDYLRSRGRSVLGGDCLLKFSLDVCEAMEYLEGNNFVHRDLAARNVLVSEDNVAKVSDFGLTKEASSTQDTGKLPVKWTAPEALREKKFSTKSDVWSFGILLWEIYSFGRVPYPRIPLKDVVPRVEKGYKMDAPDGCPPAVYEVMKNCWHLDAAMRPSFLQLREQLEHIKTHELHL

BRSK1 = target: T3, BRSK1 (Homo sapiens, UniProt Q8TDC3)
T3 sequence (Q8TDC3 1-778): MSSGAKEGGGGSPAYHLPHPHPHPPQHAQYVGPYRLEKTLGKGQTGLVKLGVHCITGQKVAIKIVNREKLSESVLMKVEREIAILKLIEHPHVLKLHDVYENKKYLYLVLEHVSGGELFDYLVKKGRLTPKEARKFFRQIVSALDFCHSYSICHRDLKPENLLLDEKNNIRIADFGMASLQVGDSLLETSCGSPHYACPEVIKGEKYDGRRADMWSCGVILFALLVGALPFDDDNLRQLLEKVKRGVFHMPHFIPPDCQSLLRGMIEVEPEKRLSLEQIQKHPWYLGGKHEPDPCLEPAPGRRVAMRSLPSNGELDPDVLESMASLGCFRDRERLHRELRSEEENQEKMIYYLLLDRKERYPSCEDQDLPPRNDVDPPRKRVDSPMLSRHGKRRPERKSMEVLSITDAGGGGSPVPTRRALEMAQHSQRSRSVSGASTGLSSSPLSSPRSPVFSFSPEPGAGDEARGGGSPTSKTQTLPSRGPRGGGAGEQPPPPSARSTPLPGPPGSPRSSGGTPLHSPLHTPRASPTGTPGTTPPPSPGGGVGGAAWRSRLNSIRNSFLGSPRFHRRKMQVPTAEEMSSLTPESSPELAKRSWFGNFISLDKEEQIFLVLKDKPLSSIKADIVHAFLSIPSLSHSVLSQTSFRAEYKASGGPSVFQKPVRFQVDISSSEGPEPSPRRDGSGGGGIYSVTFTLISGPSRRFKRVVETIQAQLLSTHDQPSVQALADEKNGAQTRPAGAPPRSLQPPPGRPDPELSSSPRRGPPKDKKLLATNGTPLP

SMILES	remaining activity at 0.1 µM (IRAK4) [%]	remaining activity at 1 µM (IRAK4) [%]	remaining activity at 0.1 µM (LKB1) [%]	remaining activity at 1 µM (LKB1) [%]	remaining activity at 0.1 µM (MARK2) [%]	remaining activity at 1 µM (MARK2) [%]	remaining activity at 0.1 µM (EF2K) [%]	remaining activity at 1 µM (EF2K) [%]	remaining activity at 0.1 µM (MEKK1) [%]	remaining activity at 1 µM (MEKK1) [%]	remaining activity at 0.1 µM (CDK9-Cyclin T1) [%]	remaining activity at 1 µM (CDK9-Cyclin T1) [%]	remaining activity at 0.1 µM (PKB alpha; 0.1 µM) [%]	remaining activity at 1 µM (PKB alpha) [%]	remaining activity at 0.1 µM (HER4) [%]	remaining activity at 1 µM (HER4) [%]	remaining activity at 0.1 µM (CSK) [%]	remaining activity at 1 µM (CSK) [%]	remaining activity at 0.1 µM (BRSK1) [%]	remaining activity at 1 µM (BRSK1) [%]
COc1cc(Nc2c(C#N)cnc3cc(OCCCN4CCN(C)CC4)c(OC)cc23)c(Cl)cc1Cl [Bosutinib, bosutinib]	55 ± 3	23	84 ± 13	104 ± 15	89 ± 8	68 ± 1	81 ± 2	95 ± 6	95 ± 5	85 ± 6	101 ± 8	125 ± 16	110 ± 16	116 ± 30	9	1 ± 1	65 ± 7	4	101 ± 1	112 ± 5
Cc1nc(Nc2ncc(C(=O)Nc3c(C)cccc3Cl)s2)cc(N2CCN(CCO)CC2)n1 [Dasatinib]	112 ± 24	102 ± 6	96 ± 18	100 ± 14	118 ± 4	126 ± 2	104 ± 4	95 ± 5	98 ± 4	102 ± 1	122 ± 8	138 ± 12	–	120 ± 13	27 ± 1	6	97 ± 19	8 ± 3	126	123 ± 1

— PMC4286194 (Biochemical Journal, 2015)
